The subject of this assay is immature T-cell development (de novo antigens on T lymphocytes). The assay is described as follows: T cell development in nude athymic mice (thymopentin vs 4-thiothymopentin). The assay is classed as in vivo. The note with it: 20 micrograms per subject. The source says:
The incorporation of thioamide linkages at positions on the peptide backbone which are susceptible to degradation may be performed in order to increase the peptide's resistance to enzymatic digestion. This enhanced stability may afford greater biological activities to the peptides prolonged existence. For example, thymopentin, which is merely a biologically active fragment of the polypeptide thymopoietin, may be modified to elicit this response. […] A control group of nude athymic mice was administered 20 micrograms of thymopentin per subject according to well-known assay techniques. See, e.g., O. Archer, T. Pierce, B. Papermanter, and R. Good, "Reduced Antibody Response in Thymectomized Rabbits", Nature, 195, 191 (1962); D. Oscaba and J. Miller, "Evidence for a Humeral Thymus Factor Responsible for the Maturation of Immunological Faculty", Nature, 199, 653 (1963); P. Magrit, "T-Cell Development in Normal and Thymopentintreated Nude Mice", J. Exp. Med., 156, 1057 (1982). […]
The immunomodulatory action of thymopentin and 4-thiothymopentin on immature T-cell development by the expression of de novo antigens on T lymphocytes after daily subcutaneous injections for two weeks in four week old nude athymic mice was measured. […]

No end group written: not given here.

Consider RKDVY [thymopentin], for which the “mean increase for the maturation of T cells and related immune responses” value came out at 43%.

The record behind these values is patent US5138061A, “Thioacylating reagents” (BioChem Pharma Inc., priority 1989, dated 1992).
